Results on 35 compounds are retold here after patent publication US12441726B2, “Compounds and uses thereof” (Foghorn Therapeutics Inc., priority 2020, dated 2025).

The target in one assay is BRM (Homo sapiens, UniProt P51531). The experiment in a line: ATPase catalytic activity assay (ADP-Glo), BRM. The note with it: 30 nM BRM, 400 μM ATP; for IC50: BRM ATPase: IC50 (uM). A general note: In ADP-Glo the light output rises with the ADP produced.
The target in the next assay is BRG-1 (Homo sapiens, UniProt P51532). Put plainly: ATPase catalytic activity assay (ADP-Glo), BRG-1. The settings on record: for Emax: 1 h, read-out: BRG1 Max % Inhibition, ADP-Glo, 30 nM BRG-1, 400 μM ATP.
Chain of BRG-1 (P51532 whole entry): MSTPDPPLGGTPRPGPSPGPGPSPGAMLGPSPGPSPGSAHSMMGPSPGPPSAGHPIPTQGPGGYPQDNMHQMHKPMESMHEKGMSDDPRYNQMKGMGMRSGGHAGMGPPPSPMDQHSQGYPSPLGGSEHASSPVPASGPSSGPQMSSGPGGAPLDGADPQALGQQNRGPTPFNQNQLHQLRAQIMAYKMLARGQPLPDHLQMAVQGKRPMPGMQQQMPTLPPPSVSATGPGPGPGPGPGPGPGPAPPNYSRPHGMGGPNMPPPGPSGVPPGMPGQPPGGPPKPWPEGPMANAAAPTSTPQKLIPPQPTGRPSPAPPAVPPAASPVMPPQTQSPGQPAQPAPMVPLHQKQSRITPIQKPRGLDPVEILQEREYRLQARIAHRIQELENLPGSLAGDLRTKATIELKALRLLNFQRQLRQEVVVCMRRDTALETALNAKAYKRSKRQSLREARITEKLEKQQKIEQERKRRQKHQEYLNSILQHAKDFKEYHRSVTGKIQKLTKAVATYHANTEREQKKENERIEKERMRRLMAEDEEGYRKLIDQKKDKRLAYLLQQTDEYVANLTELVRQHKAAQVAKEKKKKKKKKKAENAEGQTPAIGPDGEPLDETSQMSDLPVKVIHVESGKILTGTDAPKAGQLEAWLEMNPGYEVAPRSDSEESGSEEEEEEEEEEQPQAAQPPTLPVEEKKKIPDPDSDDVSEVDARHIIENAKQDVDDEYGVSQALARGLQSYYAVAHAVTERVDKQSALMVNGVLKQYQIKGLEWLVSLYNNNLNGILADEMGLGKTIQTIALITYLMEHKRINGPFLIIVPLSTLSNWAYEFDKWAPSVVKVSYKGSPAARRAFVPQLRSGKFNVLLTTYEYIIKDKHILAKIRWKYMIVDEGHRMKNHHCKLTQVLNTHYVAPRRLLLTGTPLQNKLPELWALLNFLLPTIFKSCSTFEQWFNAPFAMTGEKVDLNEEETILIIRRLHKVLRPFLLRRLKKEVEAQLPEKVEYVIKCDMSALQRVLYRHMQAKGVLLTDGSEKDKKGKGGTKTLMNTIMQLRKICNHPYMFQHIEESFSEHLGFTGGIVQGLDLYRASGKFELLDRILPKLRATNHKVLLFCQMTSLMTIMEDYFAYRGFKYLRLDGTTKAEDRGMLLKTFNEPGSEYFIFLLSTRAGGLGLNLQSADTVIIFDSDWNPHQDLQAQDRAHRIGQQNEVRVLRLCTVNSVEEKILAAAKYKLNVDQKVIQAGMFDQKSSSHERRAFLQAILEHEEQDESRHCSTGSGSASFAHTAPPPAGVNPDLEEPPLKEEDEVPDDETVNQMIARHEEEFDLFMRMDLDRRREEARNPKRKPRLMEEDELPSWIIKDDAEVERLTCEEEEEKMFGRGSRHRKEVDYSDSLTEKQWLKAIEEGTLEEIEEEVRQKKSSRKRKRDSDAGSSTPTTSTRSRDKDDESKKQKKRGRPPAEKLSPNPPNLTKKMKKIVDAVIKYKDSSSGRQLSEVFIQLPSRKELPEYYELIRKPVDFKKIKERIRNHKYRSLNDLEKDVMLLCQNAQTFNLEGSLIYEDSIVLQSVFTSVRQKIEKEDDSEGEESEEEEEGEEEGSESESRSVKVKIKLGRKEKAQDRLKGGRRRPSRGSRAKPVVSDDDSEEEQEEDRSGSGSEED

Chain of BRM (P51531 whole entry): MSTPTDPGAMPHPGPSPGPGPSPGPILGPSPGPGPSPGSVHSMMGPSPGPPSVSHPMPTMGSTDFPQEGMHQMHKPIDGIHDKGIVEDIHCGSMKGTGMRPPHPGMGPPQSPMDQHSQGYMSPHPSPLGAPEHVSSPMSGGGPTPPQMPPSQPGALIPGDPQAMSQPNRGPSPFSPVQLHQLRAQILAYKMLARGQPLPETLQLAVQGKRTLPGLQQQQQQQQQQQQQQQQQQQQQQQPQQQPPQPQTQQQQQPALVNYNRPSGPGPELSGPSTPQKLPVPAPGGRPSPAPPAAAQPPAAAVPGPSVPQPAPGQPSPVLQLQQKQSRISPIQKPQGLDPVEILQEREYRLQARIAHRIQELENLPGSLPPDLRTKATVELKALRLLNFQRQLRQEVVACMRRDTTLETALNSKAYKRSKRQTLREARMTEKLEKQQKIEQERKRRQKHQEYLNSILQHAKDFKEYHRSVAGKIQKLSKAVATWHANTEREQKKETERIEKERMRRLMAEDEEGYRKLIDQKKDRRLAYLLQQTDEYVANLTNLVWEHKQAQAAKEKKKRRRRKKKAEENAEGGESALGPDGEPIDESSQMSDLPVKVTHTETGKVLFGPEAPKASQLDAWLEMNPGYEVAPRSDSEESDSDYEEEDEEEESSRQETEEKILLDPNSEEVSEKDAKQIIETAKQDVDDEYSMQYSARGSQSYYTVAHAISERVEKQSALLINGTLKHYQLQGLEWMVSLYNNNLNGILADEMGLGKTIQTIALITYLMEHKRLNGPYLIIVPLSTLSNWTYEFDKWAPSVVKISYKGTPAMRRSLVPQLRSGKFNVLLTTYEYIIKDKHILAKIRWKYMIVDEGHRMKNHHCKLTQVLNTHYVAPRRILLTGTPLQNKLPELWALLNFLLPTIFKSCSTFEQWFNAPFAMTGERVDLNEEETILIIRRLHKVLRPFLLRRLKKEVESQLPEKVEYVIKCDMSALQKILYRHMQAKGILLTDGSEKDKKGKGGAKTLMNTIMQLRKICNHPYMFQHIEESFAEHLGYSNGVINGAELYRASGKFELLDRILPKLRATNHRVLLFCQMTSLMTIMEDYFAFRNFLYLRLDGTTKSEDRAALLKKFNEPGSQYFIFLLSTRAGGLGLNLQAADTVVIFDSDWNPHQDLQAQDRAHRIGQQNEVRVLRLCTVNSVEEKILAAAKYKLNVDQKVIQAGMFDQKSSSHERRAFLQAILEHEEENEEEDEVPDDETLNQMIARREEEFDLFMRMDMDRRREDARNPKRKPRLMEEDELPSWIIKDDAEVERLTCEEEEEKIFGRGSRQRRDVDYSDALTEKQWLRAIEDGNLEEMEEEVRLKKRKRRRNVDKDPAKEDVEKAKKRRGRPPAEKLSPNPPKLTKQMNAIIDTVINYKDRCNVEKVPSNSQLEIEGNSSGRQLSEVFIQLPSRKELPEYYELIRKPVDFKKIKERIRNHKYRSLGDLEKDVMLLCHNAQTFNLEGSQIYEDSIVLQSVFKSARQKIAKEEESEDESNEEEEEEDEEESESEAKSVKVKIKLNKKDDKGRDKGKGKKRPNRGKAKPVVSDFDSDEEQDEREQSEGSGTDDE
Experimental for BRG-1: (§1) The ATPase catalytic activity of BRM or BRG-1 was measured by an in vitro biochemical assay using ADP-Glo™ (Promega, V9102). The ADP-Glo™ kinase assay is performed in two steps once the reaction is complete. The first step is to deplete any unconsumed ATP in the reaction. The second step is to convert the reaction product ADP to ATP, which will be utilized by the luciferase to generate luminesce and be detected by a luminescence reader, such as Envision.
(§2) Then following addition of 5 μL of ADP-Glo™ Reagent provided in the kit, the reaction incubates at room temperature for 40 minutes. Then 10 μL of Kinase Detection Reagent provided in the kit is added to convert ADP to ATP, and the reaction incubates at room temperature for 60 minutes. Finally, luminescence measurement is collected with a plate-reading luminometer, such as Envision.
Experimental for BRM: as §1, §2

The term IC50 denotes the concentration at which inhibition is half-maximal. Low readings indicate greater potency in that assay, high ones weaker potency in that assay. On to `C[C@@]1(F)COCc2ccc(C(=O)NCc3cc4nc(-c5cccc(C6(CO)CC6)n5)ccc4cn3)cc21` [Compound 168], for which, on BRM, the “BRM Max % Inhibition” value came out at 99% and the IC50 was less than 0.1 µM. Besides, at BRG-1, the IC50 fell in the range of 100 to 500 nM and the Emax was determined as 93%.
Take `CNC(=O)c1cc(-c2ccc3cnc(CNC(=O)c4ccc5c(c4)[C@](C)(C#N)COC5)cc3n2)ccn1` [Compound 450]: on BRM, the “BRM Max % Inhibition” value was 96% and the IC50 lay within 0.1 to 0.5 µM. In addition, on BRG-1, the IC50 lay within 500 to 1000 nM and the Emax was 73%.
`C[C@H]1COCCN1c1nccc(-c2ccc3cnc(CNC(=O)c4ccc5c(c4)[C@](C)(C#N)COC5)cc3n2)n1` [Compound 376]: at BRM, the “BRM Max % Inhibition” value was 98% and the IC50 lay in the range of 0.1 to 0.5 µM. For the same compound, on BRG-1, the IC50 lay within 500 to 1000 nM and the Emax is 79%.
The like results for `C[C@@]1(C#N)COCc2ccc(C(=O)NCc3cc4cc(-c5ccccc5)ccc4nn3)cc21` [Compound 494] were, in that order, 99%, less than 0.1 µM, 100 to 500 nM and 90%.
The like results for `COc1cc(F)cc(-c2ccc3cnc(CNC(=O)c4ccc5c(c4)[C@](C)(C#N)COC5)cc3n2)c1` [Compound 101] were, in that order, 98%, less than 0.1 µM, 500 to 1000 nM and 78%.
The like results for `COc1cccc2c1CCN(c1ccnc(CNC(=O)c3ccc4c(c3)[C@](C)(C#N)COC4)c1)C2` [Compound 56] were, in that order, 98%, less than 0.1 µM, 100 to 500 nM and 92%.
For the compound `C[C@H](O)c1cccc(-c2ccc3cnc(CNC(=O)c4ccc5c(c4)[C@](C)(F)COC5)cc3n2)n1` [Compound 213], on BRM, the “BRM Max % Inhibition” value stood at 97% and the IC50 lay within 0.1 to 0.5 µM. Moreover, at BRG-1, the IC50 lay in the range of 500 to 1000 nM and the Emax is 63%.
`Cn1ccc2ncc(-c3ccc4cnc(CNC(=O)c5ccc6c(c5)[C@](C)(C#N)COC6)cc4n3)nc21` [Compound 346]: on BRM, the “BRM Max % Inhibition” value is given as 102% and the IC50 was less than 0.1 µM. In addition, at BRG-1, the IC50 was less than 100 nM and the Emax turned out to be 94%.
For the compound `C[C@@]1(C#N)COCc2ccc(C(=O)NCc3cc(OCc4cccc(C#N)c4)ccn3)cc21` [Compound 65], on BRM, the “BRM Max % Inhibition” value is reported as 90% and the IC50 was 0.1 to 0.5 µM. Moreover, on BRG-1, the IC50 is more than 1000 nM and the Emax was found to be 39%.
The like results for `C[C@@]1(C#N)COCc2ccc(C(=O)NCc3cc4nc(N5CCCC5)ccc4cn3)cc21` [Compound 514] were, in that order, 95%, 0.1 to 0.5 µM, more than 1000 nM and 59%.
On the same counts, the results for `COc1nn(C)cc1-c1cnc2cnc(CNC(=O)c3ccc4c(c3)[C@](C)(F)COC4)cc2n1` [Compound 161] are 94%, 0.1 to 0.5 µM, 500 to 1000 nM and 53%.
On the same counts, the results for `C[C@@]1(C#N)COCc2ccc(C(=O)NCc3cc4c(cn3)CCN(c3cncc(C5CC5)n3)C4)cc21` [Compound 328] are 99%, less than 0.1 µM, 500 to 1000 nM and 81%.
As for `C[C@@]1(C#N)COCc2ccc(C(=O)NCc3cc4cc(-c5ccccc5)ccc4cn3)cc21` [Compound 123], on BRM, the “BRM Max % Inhibition” value is 96% and the IC50 fell in the range of 0.1 to 0.5 µM. Moreover, on BRG-1, the half-inhibitory concentration (IC50) is more than 1000 nM and the Emax amounted to 74%.
With `C[C@@]1(CO)COCc2ccc(C(=O)NCc3cc4nc(-c5ccccc5)ccc4cn3)cc21` [Compound 109], at BRM, the “BRM Max % Inhibition” value is reported as 75% and the IC50 was more than 1 µM. Besides, at BRG-1, the IC50 is more than 1000 nM and the Emax was 11%.
For the compound `C[C@@]1(C#N)COCc2ccc(C(=O)NCc3cc4nc(-c5cncc(C(F)F)n5)ccc4cn3)cc21` [Compound 355], on BRM, the “BRM Max % Inhibition” value was determined as 93% and the IC50 fell in the range of 0.1 to 0.5 µM. Also, at BRG-1, the IC50 lay within 500 to 1000 nM and the Emax was determined as 74%.
For `C[C@@]1(C#N)COCc2ccc(C(=O)NCc3cc(N4CC(c5ccccc5)C4)ccn3)cc21` [Compound 32], on BRM, the “BRM Max % Inhibition” value was determined as 89% and the IC50 was more than 1 µM. For the same compound, on BRG-1, the IC50 is more than 1000 nM and the Emax amounted to 55%.
The like results for `COc1ncccc1-c1ccc2cnc(CNC(=O)c3ccc4c(c3)[C@](C)(C#N)COC4)cc2n1` [Compound 488] were, in that order, 101%, less than 0.1 µM, 100 to 500 nM and 91%.
On the same counts, the results for `C[C@@]1(F)COCc2ccc(C(=O)NCc3cc4nc(-c5cccc(C(F)F)n5)ccc4nn3)cc21` [Compound 254] are 99%, less than 0.1 µM, 500 to 1000 nM and 77%.
In the case of `C[C@@]1(C#N)COCc2ccc(C(=O)NCc3cc4nc(-c5ccccc5)ccc4cn3)cc21` [Compound 97], the “BRM Max % Inhibition” value at BRM stood at 93%. For the same compound, the IC50 against BRM is 0.1 to 0.5 µM; on BRG-1, more than 1000 nM. Also, the “BRG1 Max % Inhibition” value at BRG-1 (ADP-Glo, 30 nM BRG-1, 400 μM ATP) was found to be 47%.
Turning to `CN(C)c1cccc(-c2ccc3cnc(CNC(=O)c4ccc5c(c4)[C@](C)(F)COC5)cc3n2)n1` [Compound 248], on BRM, the “BRM Max % Inhibition” value came to 98% and the IC50 was less than 0.1 µM. For the same compound, on BRG-1, the IC50 was 100 to 500 nM and the Emax was determined as 100%.
As to `COc1nn(C)cc1-c1ccc2nnc(CNC(=O)c3ccc4c(c3)[C@](C)(C#N)COC4)cc2c1` [Compound 329], at BRM, the “BRM Max % Inhibition” value is given as 100% and the IC50 is less than 0.1 µM. For the same compound, on BRG-1, the IC50 was 100 to 500 nM and the Emax was 86%.
On the same counts, the results for `C[C@@]1(C#N)COCc2ccc(C(=O)NCc3cc4nc(-c5ccn6ncc(C(F)F)c6n5)ccc4cn3)cc21` [Compound 309] are 97%, less than 0.1 µM, 100 to 500 nM and 82%.
The like results for `C[C@@]1(C#N)COCc2ccc(C(=O)NCc3nccc(/C=C/c4ccccc4)c3F)cc21` [Compound 33] were, in that order, 98%, 0.1 to 0.5 µM, more than 1000 nM and 78%.
In the case of `COc1cncc(-c2ccc3cnc(CNC(=O)c4ccc5c(c4)[C@](C)(C#N)COC5)cc3n2)n1` [Compound 423], at BRM, the “BRM Max % Inhibition” value is listed as 98% and the half-inhibitory concentration (IC50) is less than 0.1 µM. At BRG-1, the IC50 lay within 100 to 500 nM and the Emax is 89%.
Turning to `COC(=O)N1CCC(C#Cc2ccnc(CNC(=O)c3ccc4c(c3)[C@](C)(C#N)COC4)c2)C1` (some centres unmarked) [Compound 22], at BRM, the “BRM Max % Inhibition” value was found to be 70% and the 50% inhibitory concentration (IC50) was more than 1 µM. Further, at BRG-1, the IC50 is more than 1000 nM and the Emax turned out to be 31%.
Turning to `Cn1ncc2ccc(-c3ccc4cnc(CNC(=O)c5ccc6c(c5)[C@](C)(C#N)COC6)cc4n3)cc2c1=O` [Compound 448], at BRM, the “BRM Max % Inhibition” value is given as 97% and the IC50 is less than 0.1 µM. At BRG-1, the IC50 lay within 100 to 500 nM and the Emax turned out to be 93%.
For the compound `Cn1ncc2c1CN(c1ccc3cnc(CNC(=O)c4ccc5c(c4)[C@](C)(C#N)COC5)cc3n1)C2` [Compound 461], at BRM, the “BRM Max % Inhibition” value stood at 93% and the IC50 lay in the range of 0.1 to 0.5 µM. For the same compound, at BRG-1, the IC50 lay within 500 to 1000 nM and the Emax came to 65%.
On the same counts, the results for `C[C@@]1(C#N)COCc2ncc(C(=O)NCc3cc4nc(-c5cc(F)cc(N6CCC6)c5)ccc4cn3)cc21` [Compound 487] are 100%, less than 0.1 µM, 100 to 500 nM and 95%.
Regarding `C[C@@]1(C#N)COCc2ccc(C(=O)NCc3cc4nn(-c5ccccc5)cc4cn3)cc21` [Compound 524], at BRM, the “BRM Max % Inhibition” value was 95% and the IC50 lay in the range of 0.1 to 0.5 µM. On BRG-1, the IC50 was more than 1000 nM and the Emax was found to be 50%.
On to `C[C@@]1(C#N)COCc2ccc(C(=O)NCc3cc4nc(-c5ccnc(C6CCC6)n5)ccc4cn3)cc21` [Compound 420], for which, at BRM, the “BRM Max % Inhibition” value was determined as 98% and the IC50 was less than 0.1 µM. In addition, on BRG-1, the IC50 is 100 to 500 nM and the Emax came to 89%.
On the same counts, the results for `COC1(c2cccc(-c3ccc4cnc(CNC(=O)c5ccc6c(c5)[C@](C)(C#N)COC6)cc4n3)c2)COC1` [Compound 418] are 90%, 0.1 to 0.5 µM, more than 1000 nM and 51%.
On the same counts, the results for `COc1cc(N2CCOCC2)ccc1-c1ccc2cnc(CNC(=O)c3ccc4c(c3)[C@](C)(C#N)COC4)cc2n1` [Compound 155] are 96%, 0.1 to 0.5 µM, 500 to 1000 nM and 67%.
On the same counts, the results for `Cn1cc(-c2ccc3cnc(CNC(=O)c4ccc5c(c4)[C@](C)(C#N)COC5)cc3n2)c(F)n1` [Compound 364] are 90%, 0.1 to 0.5 µM, 500 to 1000 nM and 62%.
`COc1nccc(-c2ccc3cnc(CNC(=O)c4ccc5c(c4)[C@](C)(C#N)COC5)cc3n2)c1F` [Compound 432]: on BRM, the “BRM Max % Inhibition” value was 98% and the IC50 is less than 0.1 µM. On BRG-1, the IC50 lay within 100 to 500 nM and the Emax came to 88%.
`O=C(NCc1cc2nc(-c3cncc(C4CC4)n3)ccc2cn1)c1cnc2c(c1)C(O)(C(F)F)COC2` (centres unmarked) [Compound 246]: at BRM, the “BRM Max % Inhibition” value was determined as 88% and the IC50 is 0.1 to 0.5 µM. At BRG-1, the IC50 was more than 1000 nM and the Emax worked out at 23%.
